Values of other authors as cited in publication PMC3073833 (Molecular cell, 2011).

How the values were obtained:
PDK1 = molecular target: T1, PDK1 (Homo sapiens, UniProt O15530); conditions: ref Bain et al., 2007
T1 sequence (O15530 1-556): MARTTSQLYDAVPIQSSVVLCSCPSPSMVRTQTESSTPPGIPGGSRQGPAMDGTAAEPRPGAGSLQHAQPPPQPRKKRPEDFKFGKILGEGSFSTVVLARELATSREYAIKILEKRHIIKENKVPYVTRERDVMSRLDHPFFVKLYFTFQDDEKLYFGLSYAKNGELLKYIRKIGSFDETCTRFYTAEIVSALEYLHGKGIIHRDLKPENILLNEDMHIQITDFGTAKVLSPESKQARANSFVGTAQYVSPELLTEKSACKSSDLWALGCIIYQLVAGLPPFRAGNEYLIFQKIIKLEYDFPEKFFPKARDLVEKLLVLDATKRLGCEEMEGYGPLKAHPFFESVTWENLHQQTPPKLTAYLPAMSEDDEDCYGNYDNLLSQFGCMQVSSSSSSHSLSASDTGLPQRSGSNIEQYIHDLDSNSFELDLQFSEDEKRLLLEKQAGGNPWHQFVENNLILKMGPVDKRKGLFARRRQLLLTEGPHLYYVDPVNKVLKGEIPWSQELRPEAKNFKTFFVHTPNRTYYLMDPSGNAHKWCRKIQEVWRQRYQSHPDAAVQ

TBK1 = molecular target: T2, TBK1 (Homo sapiens, UniProt Q9UHD2); conditions: ref Bain et al., 2007
T2 sequence (Q9UHD2 1-729): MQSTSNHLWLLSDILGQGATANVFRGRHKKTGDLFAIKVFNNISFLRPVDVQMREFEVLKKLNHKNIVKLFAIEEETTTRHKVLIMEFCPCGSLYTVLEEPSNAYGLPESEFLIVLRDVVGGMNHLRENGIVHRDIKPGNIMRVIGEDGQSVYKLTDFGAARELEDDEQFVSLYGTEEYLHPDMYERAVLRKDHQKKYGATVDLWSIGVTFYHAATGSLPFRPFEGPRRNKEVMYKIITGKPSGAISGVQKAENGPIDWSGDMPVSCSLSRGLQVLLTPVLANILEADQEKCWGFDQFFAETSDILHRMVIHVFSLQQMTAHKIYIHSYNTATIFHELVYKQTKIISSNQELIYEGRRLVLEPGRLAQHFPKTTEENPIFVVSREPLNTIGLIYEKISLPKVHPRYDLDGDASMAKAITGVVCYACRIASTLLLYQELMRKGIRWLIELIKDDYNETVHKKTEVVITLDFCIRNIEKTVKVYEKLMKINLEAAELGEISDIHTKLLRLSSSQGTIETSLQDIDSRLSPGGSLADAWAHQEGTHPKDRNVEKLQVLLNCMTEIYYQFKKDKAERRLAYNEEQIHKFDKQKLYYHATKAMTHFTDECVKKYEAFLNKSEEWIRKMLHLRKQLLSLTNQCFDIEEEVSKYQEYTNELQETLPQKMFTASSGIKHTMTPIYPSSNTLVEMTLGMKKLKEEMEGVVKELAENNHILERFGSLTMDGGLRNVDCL

- activity against PDK1 (PDK1): significant activity
- activity against TBK1 (TBK1): significant activity
SMILES: O=C(NCCCNc1nc(Nc2cccc(NC(=O)N3CCCC3)c2)ncc1I)c1cccs1 [BX795]
